Assay results taken from patent US11939402B2, “Antifungal peptides, compounds including the same, and methods of use thereof” (priority 2022, dated 2024).
Converted amounts (≈) assume the structure as drawn. Where a SMILES comes first, the peptide text is derived from it. The star is where a group is joined. Palmitoyl = CCCCCCCCCCCCCCCC(=O)*; Myristoyl = CCCCCCCCCCCCCC(=O)*; Decanoyl = CCCCCCCCCC(=O)*; Hexanoyl = CCCCCC(=O)*

Columns and labels:
[1] = test system: C. neoformans wild type strain H99; experiment: microbe, parasite or virus in culture; format: cell-based, Cryptococcus neoformans; conditions: for MIC ug/mL H99: wild-type H99, read at 24 and 48 hours, 37° C.; for MIC ug/mL H99 / MIC: alone; for MIC: against C. neoformans H99 wild type
Method: The assays followed standard CLSI protocol for broth microdilution assays using yeasts.(32) Microbes were passaged in YPD media at 37° C. with mixing for 2 days before harvesting with an inoculation loop to prepare monocultures on Sabouraud Dextrose Agar (SDA) plates. Monocultures on SDA plates were incubated for 2 days at 37° C. before harvesting cells for microdilution assays. RPMI media (100 μL) was charged to each of the 96 wells in a 96 well plate, with an additional 100 μL in the first column. […] The 100 μL was serially diluted by a factor of 2 from the first column to the 11th column. Microbe inoculant was then prepared. An inoculation loop was used to transfer 1-3 colonies of cells to 1 mL phosphate buffer solution (PBS). The PBS and microbe solution was made uniform by vortex mixing. Cell concentration was computed by comparing the absorbance at 530 nm to 1× McFarland standard solution and multiplying the resulting ratio by 10^7 cell/mL conversion factor. Plate inoculant was prepared by diluting the PBS microbe solution to 5000 cell/mL, in RPMI media. A 100 μL aliquot of cells was transferred to each of the wells on the plate other than column 11 for the no growth control. The operating volume was 200 μL, with 500 CFU per well for a final concentration of 2.5*10^3 cells/mL.

[2] = test system: C. neoformans cdc50Δ mutant strain; format: cell-based, Cryptococcus neoformans; conditions: alone
Method: The assays followed standard CLSI protocol for broth microdilution assays using yeasts.(32) Microbes were passaged in YPD media at 37° C. with mixing for 2 days before harvesting with an inoculation loop to prepare monocultures on Sabouraud Dextrose Agar (SDA) plates. Monocultures on SDA plates were incubated for 2 days at 37° C. before harvesting cells for microdilution assays. RPMI media (100 μL) was charged to each of the 96 wells in a 96 well plate, with an additional 100 μL in the first column. Peptide-DMSO solution (4 μL) at 12.8 mg/mL was charged to each of the wells in the first column. The 100 μL was serially diluted by a factor of 2 from the first column to the 11th column. Microbe inoculant was then prepared. An inoculation loop was used to transfer 1-3 colonies of cells to 1 mL phosphate buffer solution (PBS). The PBS and microbe solution was made uniform by vortex mixing. Cell concentration was computed by comparing the absorbance at 530 nm to 1× McFarland standard solution and multiplying the resulting ratio by 10^7 cell/mL conversion factor. Plate inoculant was prepared by diluting the PBS microbe solution to 5000 cell/mL, in RPMI media. A 100 μL aliquot of cells was transferred to each of the wells on the plate other than column 11 for the no growth control. The operating volume was 200 μL, with 500 CFU per well for a final concentration of 2.5*10^3 cells/mL.

[3] = test system: C. neoformans cdc50Δ mutant strain; format: cell-based, Cryptococcus neoformans; conditions: for FIC ug/mL ΔCDC50 Peptide: concentration of the peptide in combination with caspofungin; for FIC Index ΔCDC50: peptide with caspofungin, ΔCDC50 (table S1)
Method: The Fractional Inhibitory Concentration Index were calculated as follows: […]

[4] = test system: C. neoformans wild type strain H99; conditions: for FIC ug/mL H99 Peptide: concentration of the peptide in combination with caspofungin
Method: Microbes were prepared in the same manner as the MIC assay. […] 100 μL of RPMI media was added to the first 8 wells in the first row. […] The 100 μL of media with drug was serially diluted from the first row to the final row. […] Column 11 was the no growth control, and 12 was the no drug control. The plate was inoculated with microbes in the same manner as the MIC assay. Again, 200 uL was the operating volume, 500 CFU per well, 2.5*10^3 cell/mL. Plates were incubated for 48 hours at 37° C. and read thereafter. The Fractional Inhibitory Concentration Index were calculated as follows:
Where the MICA and MICB are the MIC values of drugs A and B alone and FICA and FICB are the Fractional Inhibitory concentrations of drugs A and B in the presence of each other, respectively.

C. neoformans cells = experiment: AF350-Annexin V / propidium iodine flow cytometry assay (exofacial phosphatidylserine); format: cell-based, Cryptococcus neoformans; conditions: 0.128 mg/mL peptide, 20 minutes at 25° C.; control 0.2±0.1%
Method: Stock microbes were defrosted from the −80° C. freezer and were passed twice for 48 hours each in YPD media. The YPD media was removed by spinning down and the supernatant was decanted. Pelletized cells were resuspended in 1 mL PBS media and washed for 5 minutes with incubation at 25° C. and 250 RPM. Washed cells were spun down again and suspended in 1 mL of PBS solution. cells were diluted 20-fold into 1 mL fungal working solution in an eppendorf. Cell concentration was quantified via comparison to 1× McFarlain's standard on a plate reader using the absorbance value at 530 nm. An aliquot of 1*10^6 cells in 100 μL was created (1*10^7 cell/mL). […] The cells were incubated for 20 minutes at 25° C. and 250 RPM. Baseline and experimental samples were prepared in triplicate. Cells were stained using an operating concentration of 0.001 mg/mL Propidium Iodine (PI) and a 40-fold dilution of AlexaFluor 350 labelled annexin V as per manufactures instructions. After staining the cells, samples were spun down and supernatant decanted. Cells were then fixed in 4% formaldehyde for 5 minutes. Fixed cells were spun down and supernatant decanted and resuspended in 400 μL 1% formaldehyde for flowcytometry. Samples were collected at a slow flow rate on a MACS Quant 10 device (Miltenyi Biotech, Auburn, CA) with 20,000 events collected per injection.
It was sought to determine whether the activities of the peptides were related to the lipid-flipping activity of the P4-ATPase. […] The intensity of the AF350-annexin V signal corresponds to concentration of PS on the exofacial side of the membrane. The propidium iodine signal corresponds to cell viability.
Single cells were first selected and gated based on morphology to ensure homogeneity among the cell population (4A, 4B). Cells with low propidium iodine intensity (PI-A<9 RU) and high AF350-annexin V intensity (Annexin V-A>9 RU) (4C, 4D) were examined. Under these gating parameters there should be, respectively, low non-specific cell death and high exofacial PS.

Row | Compound | MIC ug/mL H99 [1] | MIC ug/mL ΔCDC50 [2] | FIC ug/mL ΔCDC50 Peptide [3] | FIC Index ΔCDC50 [3] | FIC ug/mL H99 Peptide ([4]; H99) | also measured
1 | CCCCCCCCCC(=O)N[C@@H](CO)C(=O)N[C@@H](CCC(=O)O)C(=O)N[C@@H](CO)C(=O)NCC(=O)N[C@H](C(=O)N[C@@H](C)C(=O)N[C@@H](Cc1c[nH]c2ccccc12)C(=O)NCC(=O)NCC(=O)N[C@H](C(=O)N[C@@H](CCCCN)C(=O)N[C@@H](CCCCN)C(=O)N[C@@H](CC(N)=O)C(=O)N[C@@H](Cc1ccc(O)cc1)C(=O)N[C@@H](C)C(=O)O)[C@@H](C)CC)[C@@H](C)CC [AS15-Da] (Decanoyl-SESGIAWGGIKKNYA-OH) | >128 µg/mL | >128 µg/mL |  |  |  | 
2 | CCCCCCCCCCCCCC(=O)N[C@@H](Cc1ccc(O)cc1)C(=O)N[C@H](C(=O)N[C@@H](CC(=O)O)C(=O)NCC(=O)N[C@@H](Cc1ccccc1)C(=O)N1CCC[C@H]1C(=O)N[C@@H](CC(N)=O)C(=O)N[C@@H](CC(C)C)C(=O)N[C@@H](CCCNC(=N)N)C(=O)N[C@@H](CCC(=O)O)C(=O)N[C@@H](CC(=O)O)C(=O)N[C@@H](CCC(=O)O)C(=O)N[C@@H](Cc1c[nH]cn1)C(=O)N[C@@H](Cc1ccccc1)C(=O)N[C@@H](CCC(N)=O)C(=O)O)C(C)C [QY15-Ma] (Myristoyl-YVDGFPNLREDEHFQ-OH) | >128 µg/mL | 128 µg/mL (≈ 61.6 µM) | 0.5 µg/mL | 0.25 | 0.5 µg/mL | 
3 | Ac-SESGIAWGGIKKNYA-OH [AS15-Aa] | >128 µg/mL | >128 µg/mL |  |  |  | 
4 | CCCCCCCCCCCCCC(=O)N[C@@H](Cc1c[nH]c2ccccc12)C(=O)NCC(=O)NCC(=O)N[C@H](C(=O)N[C@@H](CCCCN)C(=O)N[C@@H](C)C(=O)N[C@@H](CC(N)=O)C(=O)N[C@@H](Cc1ccc(O)cc1)C(=O)N[C@@H](C)C(=O)O)[C@@H](C)CC [Peptide K6A-Ma] (Myristoyl-WGGIKANYA-OH) |  |  |  |  |  | MIC [1]: >128 µg/mL
5 | CCCCCCCCCCCCCC(=O)N[C@@H](Cc1c[nH]c2ccccc12)C(=O)NCC(=O)NCC(=O)N[C@H](C(=O)N[C@@H](C)C(=O)N[C@@H](C)C(=O)N[C@@H](CC(N)=O)C(=O)N[C@@H](Cc1ccc(O)cc1)C(=O)N[C@@H](C)C(=O)O)[C@@H](C)CC [K5A;K6A-Ma] (Myristoyl-WGGIAANYA-OH) |  |  |  |  |  | MIC [1]: >128 µg/mL; percentage of cells with low propidium iodine intensity (PI-A<9 RU) and high AF350-annexin V intensity (Annexin V-A>9 RU) (C. neoformans cells): 1.3±0.9%
6 | CCCCCCCCCCCCCCCC(=O)N[C@@H](Cc1c[nH]c2ccccc12)C(=O)NCC(=O)NCC(=O)N[C@H](C(=O)N[C@@H](CCCCN)C(=O)N[C@@H](CCCCN)C(=O)N[C@@H](CC(N)=O)C(=O)N[C@@H](Cc1ccc(O)cc1)C(=O)N[C@@H](C)C(=O)O)[C@@H](C)CC [AW9-Pa] (Palmitoyl-WGGIKKNYA-OH) |  |  | 1 µg/mL |  | 0.5 µg/mL | 
7 | CCCCCCCCCCCCCC(=O)N[C@@H](CO)C(=O)N[C@@H](CCC(=O)O)C(=O)N[C@@H](CO)C(=O)NCC(=O)N[C@H](C(=O)N[C@@H](C)C(=O)N[C@@H](Cc1c[nH]c2ccccc12)C(=O)NCC(=O)NCC(=O)N[C@H](C(=O)N[C@@H](CCCCN)C(=O)N[C@@H](CCCCN)C(=O)N[C@@H](CC(N)=O)C(=O)N[C@@H](Cc1ccc(O)cc1)C(=O)N[C@@H](C)C(=O)O)[C@@H](C)CC)[C@@H](C)CC [AS15-Ma] (Myristoyl-SESGIAWGGIKKNYA-OH) | >128 µg/mL | 8 µg/mL (≈ 4.47 µM) | 0.25 µg/mL | 0.094 | 0.5 µg/mL | percentage of cells with low propidium iodine intensity (PI-A<9 RU) and high AF350-annexin V intensity (Annexin V-A>9 RU) (C. neoformans cells): 12.1±2.0%; MIC of caspofungin in the presence of peptide ([4]; 0.5 μg/mL peptide, H99, caspofungin alone 16 μg/mL): 8 µg/mL; FIC Index H99 ([4]; peptide with caspofungin, H99 (table S1)): 0.5-1
8 | CCCCCC(=O)N[C@@H](CO)C(=O)N[C@@H](CCC(=O)O)C(=O)N[C@@H](CO)C(=O)NCC(=O)N[C@H](C(=O)N[C@@H](C)C(=O)N[C@@H](Cc1c[nH]c2ccccc12)C(=O)NCC(=O)NCC(=O)N[C@H](C(=O)N[C@@H](CCCCN)C(=O)N[C@@H](CCCCN)C(=O)N[C@@H](CC(N)=O)C(=O)N[C@@H](Cc1ccc(O)cc1)C(=O)N[C@@H](C)C(=O)O)[C@@H](C)CC)[C@@H](C)CC [AS15-Ha] (Hexanoyl-SESGIAWGGIKKNYA-OH) | >128 µg/mL | >128 µg/mL |  |  |  | 
9 | H-SESGIAWGGIKKNYA-OH [AS15] | >128 µg/mL | 128 µg/mL | 0.5 µg/mL | 0.25 | 0.5 µg/mL | growth in MIC plate wells compared to the no drug control ([1]; visual inspection of the MIC plates, H99): stronger and more confluent growth
10 | CCCCCCCCCCCCCC(=O)N[C@@H](Cc1c[nH]c2ccccc12)C(=O)NCC(=O)NCC(=O)N[C@H](C(=O)N[C@@H](C)C(=O)N[C@@H](CCCCN)C(=O)N[C@@H](CC(N)=O)C(=O)N[C@@H](Cc1ccc(O)cc1)C(=O)N[C@@H](C)C(=O)O)[C@@H](C)CC [Peptide K5A-Ma] (Myristoyl-WGGIAKNYA-OH) |  |  |  |  |  | MIC [1]: >128 µg/mL; percentage of cells with low propidium iodine intensity (PI-A<9 RU) and high AF350-annexin V intensity (Annexin V-A>9 RU) (C. neoformans cells): 5.6±0.1%
11 | CCCCCCCCCCCCCCCC(=O)N[C@@H](CO)C(=O)N[C@@H](CCC(=O)O)C(=O)N[C@@H](CO)C(=O)NCC(=O)N[C@H](C(=O)N[C@@H](C)C(=O)N[C@@H](Cc1c[nH]c2ccccc12)C(=O)NCC(=O)NCC(=O)N[C@H](C(=O)N[C@@H](CCCCN)C(=O)N[C@@H](CCCCN)C(=O)N[C@@H](CC(N)=O)C(=O)N[C@@H](Cc1ccc(O)cc1)C(=O)N[C@@H](C)C(=O)O)[C@@H](C)CC)[C@@H](C)CC [AS15-Pa] (Palmitoyl-SESGIAWGGIKKNYA-OH) | >128 µg/mL | 128 µg/mL (≈ 70.4 µM) | 2 µg/mL | 0.53 | 0.5 µg/mL | 
12 | CCCCCCCCCCCCCC(=O)N[C@@H](CO)C(=O)NCC(=O)N[C@H](C(=O)N[C@@H](C)C(=O)N[C@@H](Cc1c[nH]c2ccccc12)C(=O)NCC(=O)NCC(=O)N[C@H](C(=O)N[C@@H](CCCCN)C(=O)O)[C@@H](C)CC)[C@@H](C)CC [KS9-Ma] (Myristoyl-SGIAWGGIK-OH) | >128 µg/mL | >128 µg/mL |  |  |  | 
13 | H-YVDGFPNLREDEHFQ-OH [QY15] | >128 µg/mL | >128 µg/mL | 0.5 µg/mL | 0.5-1 | 0.5 µg/mL | 
